Measured values reported in the NIST ThermoML archive (doi:10.1016/j.fluid.2014.08.005).
± gives the expanded uncertainty stated by the source.

Tests used:
[1] = refractive index (Na D-line) (dimensionless); conditions: 101.33 kPa, Liquid, Standard Abbe refractometry
[2] = for viscosity / mass density: 101.33 kPa, Liquid; for viscosity: Cone and plate viscometry; for mass density: Vibrating tube method; for surface tension liquid-gas: Pendant drop shape

CC[S+](CC)CC.O=S(=O)([N-]S(=O)(=O)C(F)(F)F)C(F)(F)F [triethylsulfonium bis((trifluoromethyl)sulfonyl)imide]
Conditions | mass density, [2] [kg/m3] | refractive index, [1] | surface tension liquid-gas, [2] [mN/m] | viscosity, [2] [mPa·s]
283.15 K | 1477 ± 1.2 | 1.43056 ± 0.00037 | – | 64.4 ± 0.6
288.15 K | 1472 ± 1.2 | 1.42906 ± 0.00037 | – | 51.1 ± 0.5
293.15 K | 1467.1 ± 1.2 | 1.42765 ± 0.00037 | – | 41.1 ± 0.4
293.3 K | – | – | 35.5 ± 0.4 | –
298.15 K | 1462.1 ± 1.2 | 1.42632 ± 0.00037 | – | 33.9 ± 0.3
298.2 K | – | – | 35.2 ± 0.4 | –
303.15 K | 1457.3 ± 1.2 | 1.42472 ± 0.00037 | – | 28.2 ± 0.3
303.2 K | – | – | 35 ± 0.4 | –
308.15 K | 1452.4 ± 1.2 | 1.42325 ± 0.00037 | – | 23.8 ± 0.2
313.1 K | – | – | 34.4 ± 0.4 | –
313.15 K | 1447.6 ± 1.2 | 1.42185 ± 0.00037 | – | 20.3 ± 0.2
318.15 K | 1442.8 ± 1.2 | 1.42044 ± 0.00037 | – | 17.5 ± 0.2
323 K | – | – | 34 ± 0.4 | –
323.15 K | 1438.1 ± 1.1 | 1.41906 ± 0.00037 | – | 15.2 ± 0.2
328.15 K | 1433.4 ± 1.1 | 1.41767 ± 0.00037 | – | 13.4 ± 0.1
333.1 K | – | – | 33.4 ± 0.4 | –
333.15 K | 1428.7 ± 1.1 | 1.41629 ± 0.00037 | – | 11.8 ± 0.1
338.15 K | 1424 ± 1.1 | 1.4149 ± 0.00037 | – | 10.5 ± 0.1
343.1 K | – | – | 32.9 ± 0.4 | –
343.15 K | 1419.4 ± 1.1 | 1.41353 ± 0.00037 | – | 9.4 ± 0.1
348.15 K | 1414.8 ± 1.1 | 1.41215 ± 0.00037 | – | 8.5 ± 0.1
353.15 K | 1410.2 ± 1.1 | 1.41077 ± 0.00037 | – | 7.7 ± 0.1

CC[S+](C)CC.O=S(=O)([N-]S(=O)(=O)C(F)(F)F)C(F)(F)F [diethylmethylsulfonium bis[(trifluoromethyl)sulfonyl]imide]
Conditions | mass density, [2] [kg/m3] | refractive index, [1] | surface tension liquid-gas, [2] [mN/m] | viscosity, [2] [mPa·s]
283.15 K | 1517.3 ± 1.2 | 1.42745 ± 0.00037 | – | 78.3 ± 0.9
288.15 K | 1512.2 ± 1.2 | 1.42597 ± 0.00037 | – | 62.1 ± 0.6
293.15 K | 1507.2 ± 1.2 | 1.42452 ± 0.00037 | – | 49.9 ± 0.5
293.2 K | – | – | 35.7 ± 0.4 | –
298.15 K | 1502.3 ± 1.2 | 1.42325 ± 0.00037 | – | 41.1 ± 0.4
298.2 K | – | – | 35.5 ± 0.4 | –
303.15 K | 1497.3 ± 1.2 | 1.42168 ± 0.00037 | – | 34.1 ± 0.3
303.2 K | – | – | 35.3 ± 0.4 | –
308.15 K | 1492.4 ± 1.2 | 1.42026 ± 0.00037 | – | 28.7 ± 0.3
313.1 K | – | – | 34.8 ± 0.4 | –
313.15 K | 1487.6 ± 1.2 | 1.41886 ± 0.00037 | – | 24.4 ± 0.2
318.15 K | 1482.8 ± 1.2 | 1.41744 ± 0.00037 | – | 21 ± 0.2
323.1 K | – | – | 34.4 ± 0.4 | –
323.15 K | 1478 ± 1.2 | 1.41606 ± 0.00037 | – | 18.2 ± 0.2
328.15 K | 1473.2 ± 1.2 | 1.41468 ± 0.00037 | – | 15.9 ± 0.2
333.1 K | – | – | 33.9 ± 0.4 | –
333.15 K | 1468.5 ± 1.2 | 1.41331 ± 0.00037 | – | 14 ± 0.1
338.15 K | 1463.8 ± 1.2 | 1.41195 ± 0.00037 | – | 12.5 ± 0.1
343.1 K | – | – | 33.4 ± 0.4 | –
343.15 K | 1459.1 ± 1.2 | 1.41058 ± 0.00037 | – | 11.1 ± 0.1
348.15 K | 1454.5 ± 1.2 | 1.40925 ± 0.00037 | – | 10 ± 0.1
353.15 K | 1449.8 ± 1.2 | 1.40793 ± 0.00037 | – | 9 ± 0.1
